According to patent EP4678638A1, “NEW E3 UBIQUITIN LIGASE LIGAND, PROTEIN DEGRADATION AGENT AND USE THEREOF” (priority 2023, dated 2024):

Legend:
RSK2 = target: T1, RSK2 (Homo sapiens, UniProt P51812); experiment: Western blot degradation of RSK2 (hPBMC); assay type: cell-based; details: Table D8
T1 construct: evaluate the effects of the compounds of the present disclosure on the expression of target proteins in cells; endogenous in cells; host or cells: hPBMC
Method: (§1) Conventional Western blot assay was performed to evaluate the effects of the compounds of the present disclosure on the expression of target proteins in cells.
(§2) (1) Cell Seeding and Protein Harvesting: The selected cells were processed according to the cell seeding procedure and protein harvesting procedure in Table III-2. Table III-2 Cell Seeding and Protein Harvesting Procedures
(§3) (2) To the collected supernatant, 5X SDS sample loading buffer was added, followed by denaturation at 95°C for 5 minutes. The denatured samples were then separated by SDS-PAGE electrophoresis on a polyacrylamide gel. Proteins were transferred to a nitrocellulose membrane (0.45 µm NC membrane), blocked with blocking buffer at room temperature for 1 hour, and subjected to antibody incubation and development procedures according to the antibody manufacturer's instructions (Cell Signaling Technology).
(§4) Half-Maximal Degradation Concentration value (the drug concentration required for degrading proteins by 50%, abbreviated as DC50) reads method: comparing the grayscale values of Western blot bands from drug-treated samples with those from blank DMSO-treated controls, and identifying the drug concentration range at which the grayscale value is half that of the DMSO-treated control bands.
(§5) DC50 values can be calculated using ImageJ software to measure grayscale values of Western blot bands from drug-treated samples. The concentration-response curve is fitted to estimate the drug concentration corresponding to half the grayscale value.
(§6) Target protein remaining (%) refers to the percentage of target protein remaining in hPBMC cells after treatment with protein degrader compounds.
(§7) Calculation method for target protein remaining (%): Use ImageJ software to measure grayscale values of Western blot bands from drug (protein degrader)-treated samples. The grayscale value of drug-treated bands is divided by that of internal control protein bands, and the resulting quotient is normalized to obtain the relative percentage of remaining target protein after protein degrader treatment.
(§8) Target protein degradation rate (%) = 100% - target protein remaining (%).

RSK1 = target: T2, RSK1 (Homo sapiens, UniProt Q15418); experiment: Western blot degradation of RSK1 (hPBMC); assay type: cell-based; details: Table D8
T2 construct: evaluate the effects of the compounds of the present disclosure on the expression of target proteins in cells; endogenous in cells; host or cells: hPBMC
T2 sequence (Q15418 whole entry): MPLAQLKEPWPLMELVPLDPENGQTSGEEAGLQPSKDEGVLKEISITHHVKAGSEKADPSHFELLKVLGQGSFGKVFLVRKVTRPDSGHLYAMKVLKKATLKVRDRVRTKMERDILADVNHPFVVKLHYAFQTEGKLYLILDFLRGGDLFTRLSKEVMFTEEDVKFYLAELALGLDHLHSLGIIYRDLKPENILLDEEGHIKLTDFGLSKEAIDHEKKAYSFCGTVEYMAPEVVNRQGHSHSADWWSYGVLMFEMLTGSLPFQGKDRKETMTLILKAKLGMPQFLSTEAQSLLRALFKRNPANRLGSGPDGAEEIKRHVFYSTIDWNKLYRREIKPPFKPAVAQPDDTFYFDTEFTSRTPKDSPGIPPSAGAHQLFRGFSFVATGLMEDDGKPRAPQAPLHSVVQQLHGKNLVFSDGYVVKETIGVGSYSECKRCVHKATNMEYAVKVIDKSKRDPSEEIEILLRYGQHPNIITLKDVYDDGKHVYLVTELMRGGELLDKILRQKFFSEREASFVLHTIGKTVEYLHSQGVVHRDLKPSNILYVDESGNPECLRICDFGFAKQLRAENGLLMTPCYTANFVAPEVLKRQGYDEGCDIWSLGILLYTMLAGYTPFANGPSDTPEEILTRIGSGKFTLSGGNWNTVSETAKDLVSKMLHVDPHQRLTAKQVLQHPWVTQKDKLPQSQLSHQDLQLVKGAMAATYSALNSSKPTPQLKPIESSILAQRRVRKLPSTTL
Method: as §1, §2, §3, §4, §5, §6, §7, §8

T1 sequence (P51812 whole entry): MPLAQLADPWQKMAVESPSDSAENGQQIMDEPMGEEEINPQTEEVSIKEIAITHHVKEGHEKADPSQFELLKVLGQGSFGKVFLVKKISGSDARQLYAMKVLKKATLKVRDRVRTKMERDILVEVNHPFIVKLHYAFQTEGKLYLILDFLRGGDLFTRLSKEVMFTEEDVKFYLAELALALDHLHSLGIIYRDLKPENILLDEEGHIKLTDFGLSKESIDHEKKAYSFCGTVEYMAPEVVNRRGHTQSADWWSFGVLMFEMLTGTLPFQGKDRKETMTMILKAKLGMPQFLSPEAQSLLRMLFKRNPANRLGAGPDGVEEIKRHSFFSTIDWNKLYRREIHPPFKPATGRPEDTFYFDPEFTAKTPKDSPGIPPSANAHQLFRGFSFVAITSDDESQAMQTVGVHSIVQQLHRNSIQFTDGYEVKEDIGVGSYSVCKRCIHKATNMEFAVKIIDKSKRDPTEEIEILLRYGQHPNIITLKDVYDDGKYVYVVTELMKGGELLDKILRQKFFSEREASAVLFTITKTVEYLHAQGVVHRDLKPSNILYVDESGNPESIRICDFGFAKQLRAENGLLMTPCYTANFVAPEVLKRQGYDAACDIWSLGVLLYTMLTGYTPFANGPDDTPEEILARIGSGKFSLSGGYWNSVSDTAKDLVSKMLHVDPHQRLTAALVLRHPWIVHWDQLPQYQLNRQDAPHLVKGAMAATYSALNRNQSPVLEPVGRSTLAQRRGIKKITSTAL

| SMILES | Degradation of substrate protein RSK2 (substrate protein remaining %) (RSK2) | Degradation of substrate protein RSK1 (substrate protein remaining %) (RSK1) |
| --- | --- | --- |
| C[C@@H]1CNC(=O)c2cc3ccc(C(=O)Nc4cnn(Cc5ccc(N6CCC(N(C)Cc7cc(N8CCC(=O)NC8=O)ncc7F)CC6)cc5)c4)nc3n21 [GT-07943, (R)-N-(1-(4-(4-(((2-(2,4-dioxotetrahydropyrimidin-1(2H)-yl)-5-fluoropyridin-4-yl)methyl)(methyl)amino)piperidin-1-yl)benzyl)-1H-pyrazol-4-yl)-9-methyl-6-oxo-6,7,8,9-tetrahydropyrido[3',2':4,5]py rrolo[1,2-a]pyrazine-2-carboxamide] | A (A is defined as 0% ≤ substrate protein remaining % ≤ 80%) | A (A is defined as 0% ≤ substrate protein remaining % ≤ 80%) |
| C[C@@H]1CNC(=O)c2cc3ccc(C(=O)Nc4cnn(Cc5ccc(N6CCC(N7CCN(Cc8cnc(N9CCC(=O)NC9=O)cn8)CC7)CC6)cc5)c4)nc3n21 [GT-07963, (R)-N-(1-(4-(4-(4-((5-(2,4-dioxotetrahydropyrimidin-1(2H)-yl)pyrazin-2-yl)methyl)piperazin-1-yl)piperidin-1-yl)benzyl)-1H-pyrazol-4-yl)-9-methyl-6-oxo-6,7,8,9-tetrahydropyrido[3',2':4,5]pyrrolo[1,2-a]pyrazine-2-carboxamide] | A (A is defined as 0% ≤ substrate protein remaining % ≤ 80%) | A (A is defined as 0% ≤ substrate protein remaining % ≤ 80%) |
| C[C@@H]1CNCc2cc3ccc(C(=O)Nc4cnn(Cc5ccc(N6CCC(N(C)Cc7ccc(N8CCC(=O)NC8=O)nc7)CC6)cc5)c4)nc3n21 [GT-07941, (R)-N-(1-(4-(4-(((6-(2,4-dioxotetrahydropyrimidin-1(2H)-yl)pyridin-3-yl)methyl)(methyl)amino)piperidin-1-yl)benzyl)-1H-pyrazol-4-yl)-9-methyl-6,7,8,9-tetrahydropyrido[3',2':4,5]py rrolo[1,2-a]pyrazine-2-carboxamide] | A (A is defined as 0% ≤ substrate protein remaining % ≤ 80%) | A (A is defined as 0% ≤ substrate protein remaining % ≤ 80%) |
| C[C@@H]1CNC(=O)c2cc3ccc(C(=O)Nc4cnn(Cc5ccc(N6CCN(Cc7cc(N8CCC(=O)NC8=O)ncc7F)CC6)cc5)c4)nc3n21 [GT-07797, (R)-N-(1-(4-(4-((2-(2,4-dioxotetrahydropyrimidin-1(2H)-yl)-5-fluoropyridin-4-yl)methyl)piperazin-1-yl)benzyl)-1H-pyrazol-4-yl)-9-methyl-6-oxo-6,7,8,9-tetrahydropyrido[3',2':4,5]py rrolo[1,2-a]pyrazine-2-carboxamide] | A (A is defined as 0% ≤ substrate protein remaining % ≤ 80%) | A (A is defined as 0% ≤ substrate protein remaining % ≤ 80%) |
| C[C@@H]1CNC(=O)c2cc3ccc(C(=O)Nc4cnn(Cc5ccc(N6CCN(Cc7ncc(C8CCC(=O)NC8=O)cc7F)CC6)cc5)c4)nc3n21 (stereo partly drawn) [GT-07933, (9R)-N-(1-(4-(4-((5-(2,6-dioxopiperidin-3-yl)-3-fluoropyridin-2-yl)methyl)piperazin-1-yl)benzyl)-1H-pyrazol-4-yl)-9-methyl-6-oxo-6,7,8,9-tetrahydropyrido[3',2':4,5]py rrolo[1,2-a]pyrazine-2-carboxamide] | B (B is defined as substrate protein remaining % > 80%) | A (A is defined as 0% ≤ substrate protein remaining % ≤ 80%) |
| C[C@@H]1CNC(=O)c2cc3ccc(C(=O)Nc4cnn(Cc5ccc(N6CCC(N(C)Cc7ccnc(C8CCC(=O)NC8=O)c7)CC6)cc5)c4)nc3n21 (stereo partly drawn) [GT-07947, (9R)-N-(1-(4-(4-(((2-(2,6-dioxopiperidin-3-yl)pyridin-4-yl)methyl)(methyl)amino)piperidin-1-yl)benzyl)-1H-pyrazol-4-yl)-9-methyl-6-oxo-6,7,8,9-tetrahydropyrido[3',2':4,5]py rrolo[1,2-a]pyrazine-2-carboxamide] | A (A is defined as 0% ≤ substrate protein remaining % ≤ 80%) | A (A is defined as 0% ≤ substrate protein remaining % ≤ 80%) |
| C[C@@H]1CNC(=O)c2cc3ccc(C(=O)Nc4cnn(Cc5ccc(N6CCC(N7CCN(Cc8cccc(NC9CCC(=O)NC9=O)c8)CC7)CC6)cc5)c4)nc3n21 (stereo partly drawn) [GT-07956, (9R)-N-(1-(4-(4-(4-(3-((2,6-dioxopiperidin-3-yl)amino)benzyl)piperazin-1-yl)piperidin-1-yl)benzyl)-1H-pyrazol-4-yl)-9-methyl-6-oxo-6,7,8,9-tetrahydropyrido[3',2':4,5]pyrrolo[1,2-a]pyrazine-2-carboxamide] | A (A is defined as 0% ≤ substrate protein remaining % ≤ 80%) | A (A is defined as 0% ≤ substrate protein remaining % ≤ 80%) |
| C[C@@H]1CNC(=O)c2cc3ccc(C(=O)Nc4cnn(Cc5ccc(N6CCC(N7CCN(Cc8ccc(C9CCC(=O)NC9=O)cc8)CC7)CC6)cc5)c4)nc3n21 (stereo partly drawn) [GT-07951, (9R)-N-(1-(4-(4-(4-(4-(2,6-dioxopiperidin-3-yl)benzyl)piperazin-1-yl)piperidin-1-yl)benzyl)-1H-pyrazol-4-yl)-9-methyl-6-oxo-6,7,8,9-tetrahydropyrido[3',2':4,5]py rrolo[1,2-a]pyrazine-2-carboxamide] | A (A is defined as 0% ≤ substrate protein remaining % ≤ 80%) | A (A is defined as 0% ≤ substrate protein remaining % ≤ 80%) |
| C[C@@H]1CNC(=O)c2cc3ccc(C(=O)Nc4cnn(Cc5ccc(N6CCN(Cc7cc(C8CCC(=O)NC8=O)cnc7F)CC6)cc5)c4)nc3n21 (stereo partly drawn) [GT-07932, (9R)-N-(1-(4-(4-((5-(2,6-dioxopiperidin-3-yl)-2-fluoropyridin-3-yl)methyl)piperazin-1-yl)benzyl)-1H-pyrazol-4-yl)-9-methyl-6-oxo-6,7,8,9-tetrahydropyrido[3',2':4,5]py rrolo[1,2-a]pyrazine-2-carboxamide] | B (B is defined as substrate protein remaining % > 80%) | A (A is defined as 0% ≤ substrate protein remaining % ≤ 80%) |
| C[C@@H]1CNC(=O)c2cc3ccc(C(=O)Nc4cnn(Cc5ccc(N6CCN(Cc7cccc(N8CCC(=O)NC8=O)c7)CC6)cc5)c4)nc3n21 [GT-07928, (R)-N-(1-(4-(4-(3-(2,4-dioxotetrahydropyrimidin-1(2H)-yl)benzyl)piperazin-1-yl)benzyl)-1H-pyrazol-4-yl)-9-methyl-6-oxo-6,7,8,9-tetrahydropyrido[3',2':4,5]py rrolo[1,2-a]pyrazine-2-carboxamide] | A (A is defined as 0% ≤ substrate protein remaining % ≤ 80%) | A (A is defined as 0% ≤ substrate protein remaining % ≤ 80%) |
| C[C@@H]1CNC(=O)c2cc3ccc(C(=O)Nc4cnn(Cc5ccc(N6CCN(Cc7ccnc(N8CCC(=O)NC8=O)c7)CC6)cc5)c4)nc3n21 [GT-07798, (R)-N-(1-(4-(4-((2-(2,4-dioxotetrahydropyrimidin-1(2H)-yl)pyridin-4-yl)methyl)piperazin-1-yl)benzyl)-1H-pyrazol-4-yl)-9-methyl-6-oxo-6,7,8,9-tetrahydropyrido[3',2':4,5]py rrolo[1,2-a]pyrazine-2-carboxamide] | A (A is defined as 0% ≤ substrate protein remaining % ≤ 80%) | A (A is defined as 0% ≤ substrate protein remaining % ≤ 80%) |
| C[C@@H]1CNC(=O)c2cc3ccc(C(=O)Nc4cnn(Cc5ccc(N6CCN(Cc7ccc(N8CCC(=O)NC8=O)cn7)CC6)cc5)c4)nc3n21 [GT-07929, (R)-N-(1-(4-(4-((5-(2,4-dioxotetrahydropyrimidin-1(2H)-yl)pyridin-2-yl)methyl)piperazin-1-yl)benzyl)-1H-pyrazol-4-yl)-9-methyl-6-oxo-6,7,8,9-tetrahydropyrido[3',2':4,5]py rrolo[1,2-a]pyrazine-2-carboxamide] | B (B is defined as substrate protein remaining % > 80%) | A (A is defined as 0% ≤ substrate protein remaining % ≤ 80%) |
